Measurements as given in ChEMBL document CHEMBL6083262, “Stereorandomized Oncocins with Preserved Ribosome Binding and Antibacterial Activity” (J Med Chem, 2024).
Converted amounts (≈) assume the structure as drawn. The source made the active and inactive calls. The calls are words filed in the database; no cut-off is given here. Non-standard residues stand in square brackets, D forms with d. Residues, ends and D or L forms follow the SMILES beside them. ξ: configuration not given here. ξY = NC(Cc1ccc(O)cc1)C(=O)O; ξR = N=C(N)NCCCC(N)C(=O)O; ξN = NC(=O)CC(N)C(=O)O; Nleu = CC(C)CNCC(=O)O; ξI = CCC(C)C(N)C(=O)O; Nlys = NCCCCNCC(=O)O; ξP = O=C(O)C1CCCN1

Key:
[1] = tested on: Escherichia coli; test: Antimicrobial activity against Escherichia coli W3110 incubated for 16 to 20 hrs in 12.5 % muller hinton medium by broth microdilution method; format: functional; details: time 16-20 hrs
[2] = tested on: Pseudomonas aeruginosa; test: Antibacterial activity against multidrug-resistant Pseudomonas aeruginosa clinical isolate ZEM-1A incubated for 16 to 20 hrs in full muller hinton medium by broth microdilution method; format: functional; details: time 16-20 hrs
[3] = tested on: Klebsiella pneumoniae; test: Antimicrobial activity against Klebsiella pneumoniae NCTC 418 incubated for 16 to 20 hrs in 12.5 % muller hinton medium by broth microdilution method; format: functional; details: time 16-20 hrs
[4] = tested on: Pseudomonas aeruginosa; test: Antibacterial activity against multidrug-resistant Pseudomonas aeruginosa clinical isolate ZEM9A incubated for 16 to 20 hrs in full muller hinton medium by broth microdilution method; format: functional; details: time 16-20 hrs
[5] = tested on: Pseudomonas aeruginosa; test: Antibacterial activity against multidrug-resistant Pseudomonas aeruginosa PA14 incubated for 16 to 20 hrs in full muller hinton medium by broth microdilution method; format: functional; details: time 16-20 hrs
[6] = tested on: Klebsiella pneumoniae; test: Antibacterial activity against multidrug-resistant Klebsiella pneumoniae clinical isolate OXA-48 incubated for 16 to 20 hrs in 12.5 % muller hinton medium by broth microdilution method; format: functional; details: time 16-20 hrs
[7] = tested on: Staphylococcus aureus; test: Antimicrobial activity against methicillin-resistant Staphylococcus aureus COL incubated for 16 to 20 hrs in full muller hinton medium by broth microdilution method; format: functional; details: time 16-20 hrs
[8] = tested on: Acinetobacter baumannii; test: Antimicrobial activity against Acinetobacter baumannii ATCC 19606 incubated for 16 to 20 hrs in full muller hinton medium by broth microdilution method; format: functional; details: time 16-20 hrs
[9] = tested on: Klebsiella pneumoniae; test: Antibacterial activity against multidrug-resistant Klebsiella pneumoniae clinical isolate OXA-48 incubated for 16 to 20 hrs in full muller hinton medium by broth microdilution method; format: functional; details: time 16-20 hrs
[10] = tested on: Pseudomonas aeruginosa; test: Antibacterial activity against multidrug-resistant Pseudomonas aeruginosa PA14 4.18 harboring pmrB mutant incubated for 16 to 20 hrs in full muller hinton medium by broth microdilution method; format: functional; details: time 16-20 hrs
[11] = tested on: Klebsiella pneumoniae; test: Antimicrobial activity against Klebsiella pneumoniae NCTC 418 incubated for 16 to 20 hrs in full muller hinton medium by broth microdilution method; format: functional; details: time 16-20 hrs
[12] = tested on: Pseudomonas aeruginosa; test: Antibacterial activity against multidrug-resistant Pseudomonas aeruginosa PA14 2P4 harboring pmrB mutant incubated for 16 to 20 hrs in full muller hinton medium by broth microdilution method; format: functional; details: time 16-20 hrs
[13] = tested on: Enterobacter cloacae; test: Antibacterial activity against multidrug-resistant Enterobacter cloacae incubated for 16 to 20 hrs in full muller hinton medium by broth microdilution method; format: functional; details: time 16-20 hrs
[14] = tested on: Pseudomonas aeruginosa; test: Antibacterial activity against multidrug-resistant Pseudomonas aeruginosa PA14 4.13 harboring phoQ mutant incubated for 16 to 20 hrs in full muller hinton medium by broth microdilution method; format: functional; details: time 16-20 hrs
[15] = Hemolytic activity in human RBC incubated for 4 hrs; format: toxicity, cell-based; details: erythrocyte
[16] = tested on: Escherichia coli; test: Antimicrobial activity against Escherichia coli W3110 incubated for 16 to 20 hrs in full muller hinton medium by broth microdilution method; format: functional; details: time 16-20 hrs
[17] = tested on: Staphylococcus aureus; test: Antimicrobial activity against methicillin-resistant Staphylococcus aureus COL incubated for 16 to 20 hrs in 12.5 % muller hinton medium by broth microdilution method; format: functional; details: time 16-20 hrs
[18] = tested on: Lipid bilayer; test: Induction of membrane disruption in egg yolk phosphatidyl choline at 10 ug/ml by measuring vesicle leakage; details: dose 10.0 µg/ml
[19] = tested on: Enterobacter cloacae; test: Antibacterial activity against multidrug-resistant Enterobacter cloacae incubated for 16 to 20 hrs in 12.5 % muller hinton medium by broth microdilution method; format: functional; details: time 16-20 hrs
[20] = tested on: Klebsiella pneumoniae; test: Bacteriostatic activity against Klebsiella pneumoniae assessed as membrane perturbation at 8 times MIC in full muller hinton medium by transmission electron microscopic analysis; format: functional, organism-based
[21] = tested on: Klebsiella pneumoniae; test: Bacteriostatic activity against Klebsiella pneumoniae assessed as small intracellular vesicles at 8 times MIC in full muller hinton medium by transmission electron microscopic analysis; format: functional, organism-based
[22] = tested on: Lipid bilayer; test: Induction of membrane disruption in egg yolk phosphatidyl glycerol at 10 ug/ml by measuring vesicle leakage; details: dose 10.0 µg/ml
[23] = tested on: Escherichia coli; test: Bacteriostatic activity against Escherichia coli assessed as membrane perturbation at 8 times MIC in full muller hinton medium by transmission electron microscopic analysis; format: functional, organism-based
[24] = tested on: Escherichia coli; test: Bacteriostatic activity against Escherichia coli at 8 times MIC in full muller hinton medium by Time-kill assay; format: functional, organism-based
[25] = tested on: Klebsiella pneumoniae; test: Bacteriostatic activity against Klebsiella pneumoniae assessed as detachment of inner membrane from outer membrane by measuring a large void at 8 times MIC in full muller hinton medium by transmission electron microscopic analysis; format: functional, organism-based
[26] = tested on: Escherichia coli; test: Bacteriostatic activity against Escherichia coli assessed as small intracellular vesicles at 8 times MIC in full muller hinton medium by transmission electron microscopic analysis; format: functional, organism-based
[27] = tested on: rRNA; test: Binding affinity to [gamma32 P-ATP] labeled Escherichia coli MG1655 23S ribosomal RNA (5-CCCTTGGGACCTACTTC-3') at U2506 position assessed as increase in band intensity at 1 uM incubated for 2.5 hrs in full muller hinton medium by CMCT based gel electrophoresis; format: nucleic-acid assay
[28] = tested on: Escherichia coli; test: Bacteriostatic activity against Escherichia coli assessed as detachment of inner membrane from outer membrane by measuring a large void at 8 times MIC in full muller hinton medium by transmission electron microscopic analysis; format: functional, organism-based
[29] = tested on: Klebsiella pneumoniae; test: Bacteriostatic activity against Klebsiella pneumoniae at 8 times MIC in full muller hinton medium by Time-kill assay; format: functional, organism-based

Structure (SMILES): CC(C)C[C@H](NC(=O)CN(CC(C)C)C(=O)[C@H](CC(C)C)NC(=O)CN(CCCCN)C(=O)[C@H](CC(C)C)NC(=O)CN(CC(C)C)C(=O)[C@H](CCCCN)NC(=O)CN(CC(C)C)C(=O)[C@H](CC(C)C)NC(=O)CN(CCCCN)C(=O)[C@@H](N)CCCCN)C(N)=O (H-K[Nlys]L[Nleu]K[Nleu]L[Nlys]L[Nleu]L-NH2)
- MIC [1]: 2 µg/mL (≈ 1.51 µM)
- MIC [2]: > 64 µg/mL
- MIC [3]: > 32 µg/mL
- MIC [4]: > 64 µg/mL
- MIC [5]: > 32 µg/mL
- MIC [6]: 64 µg/mL (≈ 48.4 µM)
- MIC [7]: > 32 µg/mL
- MIC [8]: > 32 µg/mL
- MIC [9]: > 64 µg/mL
- MIC [10]: > 32 µg/mL
- MIC [11]: > 32 µg/mL
- MIC [12]: > 64 µg/mL
- MIC [13]: 64 µg/mL (≈ 48.4 µM)
- MIC [14]: > 32 µg/mL

Structure (SMILES): CCC(C)C(NC(=O)C(CCCNC(=N)N)NC(=O)C(CCCNC(=N)N)NC(=O)C1CCCN1C(=O)[C@@H]1CCCN1C(=O)[C@H](CCCNC(=N)N)NC(=O)[C@@H]1CCCN1C(=O)[C@H](CCCNC(=N)N)NC(=O)[C@@H]1CCCN1C(=O)[C@H](CC(C)C)NC(=O)[C@H](Cc1ccc(O)cc1)NC(=O)[C@@H]1CCCN1C(=O)[C@@H]1CCCN1C(=O)[C@H](CCCCN)NC(=O)[C@H](CC(=O)O)NC(=O)[C@@H](N)C(C)C)C(=O)NC(Cc1ccc(O)cc1)C(=O)NC(CC(N)=O)C(=O)NC(CCCNC(=N)N)C(N)=O (some centres undefined) (H-VDKPPYLPRPRP[ξP][ξR][ξR][ξI][ξY][ξN][ξR]-NH2)
- MIC [1]: 1 µg/mL (≈ 0.418 µM)
- MHC [15]: > 1000 µg/mL
- MIC [16]: 8 µg/mL (≈ 3.35 µM)
- MIC [7]: > 64 µg/mL
- MIC [11]: 4 µg/mL (≈ 1.67 µM)
- MIC [17]: > 16 µg/mL

Structure (SMILES): CCC(C)C(NC(=O)C(CCCNC(=N)N)NC(=O)C(CCCNC(=N)N)NC(=O)C1CCCN1C(=O)C1CCCN1C(=O)[C@H](CCCNC(=N)N)NC(=O)[C@@H]1CCCN1C(=O)[C@H](CCCNC(=N)N)NC(=O)[C@@H]1CCCN1C(=O)[C@H](CC(C)C)NC(=O)[C@H](Cc1ccc(O)cc1)NC(=O)[C@@H]1CCCN1C(=O)[C@@H]1CCCN1C(=O)[C@H](CCCCN)NC(=O)[C@H](CC(=O)O)NC(=O)[C@@H](N)C(C)C)C(=O)NC(Cc1ccc(O)cc1)C(=O)NC(CC(N)=O)C(=O)NC(CCCNC(=N)N)C(N)=O (some centres undefined) (H-VDKPPYLPRPR[ξP][ξP][ξR][ξR][ξI][ξY][ξN][ξR]-NH2)
- Activity [18]: Active
- MIC [19]: 0.5 µg/mL (≈ 0.209 µM)
- Activity [20]: Active; Few Membrane Perturbation Observed
- Activity [21]: Active
- Activity [22]: Active
- Activity [23]: Active; Few Membrane Perturbation Observed
- Activity [24]: Active
- Activity [25]: Active
- MIC [4]: > 64 µg/mL
- MIC [5]: > 64 µg/mL
- MHC [15]: > 1000 µg/mL
- MIC [7]: > 64 µg/mL
- Activity [26]: Active
- MIC [12]: > 64 µg/mL
- Activity [27]: Active
- MIC [17]: > 16 µg/mL
- MIC [13]: > 64 µg/mL
- Activity [28]: Active
- Activity [29]: Active
